This assay addresses T1, Recombinant human JARID1B/KDM5B (Homo sapiens, UniProt Q9UGL1).
T1 construct: purchased Active Motif 31432; host or cells: Sf9 insect cells
Kind of assay: LANCE Ultra TR-FRET demethylase assay with FLAG-tagged JARID1B. Format: biochemical. Particulars: 100 nM compound; 500 nM biotinylated H3K4me3 peptide substrate. An excerpt: FLAG-tagged JARID1B (also known as KDM5B) protein was screened against more than 170 compounds. For this compound screening, LANCE Ultra time-resolved fluorescence resonance energy transfer (TR-FRET) assay was employed using an europoium (Eu)-labeled antibody that can specifically recognize mono- or dimethylated peptides (H3K4me2/1) and ULight-streptavidin (ULight-SA), a small molecule fluorescent dye. When irradiated at 340 nm, the energy from the Eu donor is transferred to the ULight acceptor dye which, in turn, emits light primarily at 665 nm. The ratio between the intensity of primary emission at 665 nm and that of secondary emission at 590 nm was used to quantify the level of lysine methylation. As JARID1B removes more methyl moieties from tri-methylated substrate peptides (H3K4me3), the ratio increases until the enzyme reaction is terminated. In case, therefore, the compounds disrupt the enzymatic activity completely, the ratio becomes equal to a background value.
Recombinant human JARID1B/KDM5B (accession number NP_006609) of molecular weight 179.9 KDa was expressed in Sf9 insect cells and contains an N-terminal FLAG tag. The enzyme was obtained from Active Motif (Catalog No. 31432). The tri-methylated histone substrate peptide of purity greater than 95% was a synthetic peptide in which the first 21 amino acids correspond to the human histone H3 sequence with three extra amino acids and a biotin motif (GGK-biotin) linked to the C-terminus [sequence: ART-K (Me3)-QTARKSTGGKAPRKQLA-GGK-biotin-OH], (AnaSpec, Fremont, Calif. Catalog. No. ANA-1413). The reference inhibitory compound tranylcypromine (or trans-2-phenylcyclopropylamine hydrochloride, also known as, 2-PCPA) was purchased from Sigma (St. Louis, Mo. Cat. no. P8511). ULight-labeled streptavidin (ULight-SA, Catalog no. TRF0102), Eu-W1024-labeled anti-methyl-Histone H3 Lysine 4 (H3K4me1-2) Antibody (Catalog no. TRF0402), and LANCE detection buffer 10× (Catalog no. CR97-100) were obtained from PerkinElmer (Montreal, Quebec, Canada). The TR-FRET experiments were carried out in white, low-volume 384-wellplates purchased from PerkinElmer (ProxiPlate-384 Plus, Catalog no. 6008280).
The TR-FRET signal was measured in the presence both of the bio-H3K4me3 peptide and FLAG-JARID1B by detecting any H3K4me2/1 peptide produced in the assay system. Assays using only the bio-H3K4me2 peptide were served as a positive control. Robust enzymatic progressions were observed by using JARID1B at concentrations ranging from 10 to 30 nM. In a typical TR-FRET experiment, JARID1B was pre-incubated with or without 20 uM, 1 uM, or 0.1 uM of test-compounds (containing 1% DMSO final) for […]. The enzymatic reactions were initiated by the addition of 500 nM biotinylated H3K4me3 peptide substrate plus 500 uM of 2-OG, 25 uM Fe(II) and 2 mM ascorbate. The reaction buffer also contained 50 mM Hepes (pH7.5), 0.01% (v/v) Tween 20, and 50 mM NaCl. The reaction mixture was incubated for […] at room temperature before reading on an EnVision plate reader (PerkinElmer, Waltham, Mass.).
(In general: Time-resolved FRET reads energy transfer from a long-lived donor to a nearby acceptor.)

From patent US9834550B2, “Pyridopyrimidinone compounds for modulating the catalytic activity of histone lysine demethylases (KDMs)” (Dong-A Socio Holdings Co., Ltd., priority 2014, dated 2017) come the findings set out here.

Structures are written as SMILES.

T1 sequence (Q9UGL1 whole entry): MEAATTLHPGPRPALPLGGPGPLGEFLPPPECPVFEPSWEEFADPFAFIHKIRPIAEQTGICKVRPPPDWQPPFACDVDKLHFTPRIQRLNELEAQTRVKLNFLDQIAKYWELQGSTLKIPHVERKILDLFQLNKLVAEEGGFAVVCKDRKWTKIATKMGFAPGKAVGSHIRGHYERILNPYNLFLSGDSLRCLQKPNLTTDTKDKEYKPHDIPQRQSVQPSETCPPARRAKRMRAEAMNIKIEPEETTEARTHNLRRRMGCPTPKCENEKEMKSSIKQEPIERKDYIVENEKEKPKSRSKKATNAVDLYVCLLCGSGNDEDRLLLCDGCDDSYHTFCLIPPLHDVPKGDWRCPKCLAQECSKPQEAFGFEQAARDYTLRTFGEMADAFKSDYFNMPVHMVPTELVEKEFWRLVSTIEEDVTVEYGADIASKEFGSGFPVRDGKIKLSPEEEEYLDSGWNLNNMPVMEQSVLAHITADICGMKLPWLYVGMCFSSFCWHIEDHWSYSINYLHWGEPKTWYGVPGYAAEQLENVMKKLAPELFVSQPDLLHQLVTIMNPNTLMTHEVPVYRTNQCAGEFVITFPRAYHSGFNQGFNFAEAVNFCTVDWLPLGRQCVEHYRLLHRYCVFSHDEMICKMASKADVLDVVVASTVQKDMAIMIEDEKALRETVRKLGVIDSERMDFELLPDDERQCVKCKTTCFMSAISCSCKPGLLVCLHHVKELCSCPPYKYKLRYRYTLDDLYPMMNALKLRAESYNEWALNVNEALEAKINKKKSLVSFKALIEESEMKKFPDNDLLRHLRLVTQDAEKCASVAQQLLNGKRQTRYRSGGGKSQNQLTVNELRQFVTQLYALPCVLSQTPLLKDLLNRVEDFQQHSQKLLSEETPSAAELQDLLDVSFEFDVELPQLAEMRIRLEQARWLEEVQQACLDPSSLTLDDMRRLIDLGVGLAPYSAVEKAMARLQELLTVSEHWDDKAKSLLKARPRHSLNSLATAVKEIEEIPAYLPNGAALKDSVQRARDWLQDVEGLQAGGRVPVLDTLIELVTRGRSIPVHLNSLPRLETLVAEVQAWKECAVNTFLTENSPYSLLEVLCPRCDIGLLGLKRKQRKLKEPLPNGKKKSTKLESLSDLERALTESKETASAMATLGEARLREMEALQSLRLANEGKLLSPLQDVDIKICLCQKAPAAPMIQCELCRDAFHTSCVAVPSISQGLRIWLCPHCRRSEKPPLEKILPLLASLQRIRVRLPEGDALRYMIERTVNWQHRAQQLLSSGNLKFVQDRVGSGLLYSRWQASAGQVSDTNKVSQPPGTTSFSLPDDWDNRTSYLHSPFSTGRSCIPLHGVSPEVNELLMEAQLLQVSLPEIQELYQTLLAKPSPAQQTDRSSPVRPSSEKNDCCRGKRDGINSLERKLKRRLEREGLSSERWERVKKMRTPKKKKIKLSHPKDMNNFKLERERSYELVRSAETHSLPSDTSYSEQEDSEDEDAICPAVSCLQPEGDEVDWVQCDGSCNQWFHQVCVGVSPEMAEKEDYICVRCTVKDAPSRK

For orientation: inhibition means the drop in the measured response relative to a control, in per cent. Take `O=c1[nH]c(COc2ccc(C3CCCC3)cc2)nc2c(CNCC3CCNCC3)nccc12` [Example 140, 2-((4-cyclopentylphenoxy)methyl)-8-(((piperidin-4-ylmethyl)amino)methyl)pyrido[3,4-d]pyrimidin-4(3H)-one]: the inhibition at 0.1 µM was in the range of 20 to 50%.
Then `CC(c1ccccc1)c1ccc(OCc2nc3c(CNCC4CCNCC4)nccc3c(=O)[nH]2)cc1` (stereo not shown) [Example 141, 2-((4-(1-phenylethyl)phenoxy)methyl)-8-(((piperidin-4-ylmethyl)amino)methyl)pyrido[3,4-d]pyrimidin-4(3H)-one], with 20 to 50%; and `CCN1CCC(CNCc2nccc3c(=O)[nH]c(COc4ccc(Cc5ccccc5)cc4)nc23)C1` (stereo not shown) [Example 142, 2-((4-benzylphenoxy)methyl)-8-((((1-ethylpyrrolidin-3-yl)methyl)amino)methyl)pyrido[3,4-d]pyrimidin-4(3H)-one], with > 50%.
The figure for `O=c1[nH]c(COc2ccc(Cc3ccccc3)cc2)nc2c(CNCCCCN3CCCC3)nccc12` [Example 143, 2-((4-benzylphenoxy)methyl)-8-(((4-(pyrrolidin-1-yl)butyl)amino)methyl)pyrido[3,4-d]pyrimidin-4(3H)-one] is 20 to 50%.
The figure for `CCN1CCC[C@@H]1CNCc1nccc2c(=O)[nH]c(COc3ccc(Cc4ccccc4)cc3)nc12` [Example 145, (R)-2-((4-benzylphenoxy)methyl)-8-((((1-ethylpyrrolidin-2-yl)methyl)amino)methyl)pyrido[3,4-d]pyrimidin-4(3H)-one] is 20 to 50%; for `CCN1CCC[C@H]1CNCc1nccc2c(=O)[nH]c(COc3ccc(Cc4ccccc4)cc3)nc12` [Example 146, (S)-2-((4-benzylphenoxy)methyl)-8-((((1-ethylpyrrolidin-2-yl)methyl)amino)methyl)pyrido[3,4-d]pyrimidin-4(3H)-one] it is 20 to 50%; for `O=c1[nH]c(COc2ccc(Cc3ccccc3)cc2)nc2c(CNCC3CNC3)nccc12` [Example 147, 8-(((azetidin-3-ylmethyl)amino)methyl)-2-((4-benzylphenoxy)methyl)pyrido[3,4-d]pyrimidin-4(3H)-one] it is > 50%.
`O=c1[nH]c(COc2ccc(Cc3ccccc3)cc2)nc2c(CNC[C@H]3CCCO3)nccc12` [Example 148, (R)-2-((4-benzylphenoxy)methyl)-8-((((tetrahydrofuran-2-yl)methyl)amino)methyl)pyrido[3,4-d]pyrimidin-4(3H)-one]: the inhibition at 0.1 µM lay in the range of 20 to 50%.
Then `O=c1[nH]c(COc2ccc(Cc3ccccc3)cc2)nc2c(CNCC3CCOCC3)nccc12` [Example 149, 2-((4-benzylphenoxy)methyl)-8-((((tetrahydro-2H-pyran-4-yl)methyl)amino)methyl)pyrido[3,4-d]pyrimidin-4(3H)-one], with > 50%; and `O=c1[nH]c(COc2ccc(Cc3ccccc3)cc2)nc2c(CNC[C@H]3CCNC3)nccc12` [Example 150, (S)-2-((4-benzylphenoxy)methyl)-8-(((pyrrolidin-3-ylmethyl)amino)methyl)pyrido[3,4-d]pyrimidin-4(3H)-one], with > 50%; and `O=c1[nH]c(COc2ccc(Cc3ccccc3)cc2)nc2c(CNC[C@@H]3CCNC3)nccc12` [Example 151, (R)-2-((4-benzylphenoxy)methyl)-8-(((pyrrolidin-3-ylmethyl)amino)methyl)pyrido[3,4-d]pyrimidin-4(3H)-one], with 20 to 50%.
Then `CN1CCC(CNCc2nccc3c(=O)[nH]c(COc4ccc(Cc5ccccc5)cc4)nc23)CC1` [Example 152, 2-((4-benzylphenoxy)methyl)-8-((((1-methylpiperidin-4-yl)methyl)amino)methyl)pyrido[3,4-d]pyrimidin-4(3H)-one], with > 50%.
`O=c1[nH]c(COc2ccc(Cc3ccccc3)cc2)nc2c(CNC[C@H]3CCCNC3)nccc12` [Example 153, (S)-2-((4-benzylphenoxy)methyl)-8-(((piperidin-3-ylmethyl)amino)methyl)pyrido[3,4-d]pyrimidin-4(3H)-one]: the inhibition at 0.1 µM was > 50%.
